Experimental data: US20140051685A1, “THERAPEUTIC TREATMENT FOR METABOLIC SYNDROME, TYPE 2 DIABETES, OBESITY OR PREDIABETES” (priority 2010, published 2014)

Assays:
Assay type in all cases: in vivo
[1] = system: obese, diabetic female (ob/ob) mice; assay: GBR 12909 once daily for 14 days in obese, diabetic ob/ob mice; conditions: 30 mg/kg once daily
Method: GBR 12909 (1-(2-[bis(4-Fluorophenyl)methoxy]ethyl)-4-(3-phenylpropyl)piperazine dihydrochloride) is a specific dopamine reuptake inhibitor. Systemic administration of GBR 12909 can increase the dopaminergic to noradrenergic neuronal activity in the central nervous system. A study was conducted to determine the effects of GBR 12909 upon blood glucose and plasma free fatty acid levels in obese, diabetic mice (ob/ob strain). The ob/ob mouse is hyperphagic, obese, insulin resistant, diabetic and dyslipidemic due to the absence of functional leptin as a result of a mutation in this gene. Starvation or calorie restriction of these mice leads to increases in plasma free fatty acid levels that can function over the long term to worsen diabetes.
Different groups of obese, diabetic female (ob/ob) mice (body weight of approximately 33 g) maintained on 12 hour daily photoperiods, housed one per cage and allowed to feed ad libitum were randomized to once daily treatment with either a specific dopamine reuptake inhibitor, GBR 12909 at a dose of 30 mg/kg body weight (n=5-7) or vehicle (control group; n=5-7) for a 14 day period. On the fifteenth day of the study and approximately 24 hours after the final treatment animals were sacrificed and blood samples were obtained for the analyses of blood glucose and plasma free fatty acid and triglyceride levels.

[2] = system: obese, diabetic female ob/ob mice with mild diabetes; assay: GBR 12909 and clonidine, interactive effects on blood glucose in ob/ob mice; conditions: GBR 12909 about 20 mg/kg, clonidine about 0.1 mg/kg, alone or together, once daily 14 days, controls 202±41
Method: GBR 12909 is a specific dopamine reuptake inhibitor. Its use can increase the dopaminergic to noradrenergic neuronal activity in the central nervous system. However, by combining GBR 12909 with clonidine, a noradrenergic alpha 2 receptor agonist with preferential affinity for presynaptic alpha 2 sites, it is possible to further increase the dopamine to noradrenaline neuronal activity ratio in the central nervous system. A study was conducted to determine the interactive effects of GBR 12909 and clonidine on blood glucose level in ob/ob mice.
Obese, diabetic female ob/ob mice (body weight of approximately 28 g) with mild diabetes were maintained on 14 hour daily photoperiods, housed one per cage and allowed to feed ad libitum. Different groups of these animals were randomized to once daily treatment with either a specific dopamine reuptake inhibitor, GBR 12909 at an approximate dose of 20 mg/kg body weight (n=4), or clonidine at an approximate dose of 0.1 mg/kg (n=5), these same dosages of GBR 12909 plus clonidine (n=3), or vehicle (control group; n=5-7) for a 14 day period. On the fifteenth day of the study and approximately 24 hours after the final treatment animals were sacrificed and blood samples were obtained for the analyses of blood glucose levels.

[3] = system: female mice fed a high fat diet for 20 weeks; assay: GBR 12909 plus fusaric acid in mice fed a high fat diet; conditions: for body weight (normalization): 2 weeks of treatment, normal weight for age matched controls=28 grams, FIG. 15; for plasma insulin levels compared to lean, insulin sensitive, non-diabetic mice: FIG. 12
Method: Female mice at 4 weeks of age were fed a high fat diet for 20 weeks to induce diabetes and insulin resistance and continued on such diet while treated for 14 days with either GBR 12909 (10 mg/kg), FA (15 mg/kg), GBR 12909 (10 mg/kg) plus FA (15 mg/kg), or vehicle and sacrificed after 14 days of treatment for the analyses of body fat, blood glucose, plasma insulin, and plasma nitric oxide levels. […] Only the GBR/FA group normalized plasma insulin levels. […] This effect was not observed with either GBR or FA treatments alone.

[4] = system: male mice fed a high fat diet; assay: GBR versus bupropion in mice fed a high fat diet
Method: The effect of increasing central dopamine neuronal activity versus increasing central dopamine plus norepinephirne neuronal activity on body fat, blood glucose, plasma insulin, and insulin sensitivity was studied in male mice fed a high fat diet from 4 weeks of age until 24 weeks of age. These mice were maintained on this high fat diet while treated with either GBR (20 mg/kg) (a selective dopamine reuptake inhibitor) or bupropion (20 mg/kg) (a dopamine and norepinpehrine reuptake inhibitor) at doses that approximate their 50% maximal effective dose for these functions in vivo in rodents.

[5] = system: obese, diabetic female ob/ob mice; assay: Fusaric acid plus SKF 38393 in ob/ob mice; conditions: fusaric acid 15 mg/kg, SKF 38393 10 mg/kg; for retroperitoneal fat pad weight / plasma triglyceride level: 14 days; for retroperitoneal fat pad weight: control value 727±25; for plasma triglyceride level: controls 155±15; for blood glucose: alone or both, once daily 14 days, controls 380±30
Method: Fusaric acid is a dopamine beta hydroxylase inhibitor that reduces noradrenaline synthesis in noradrenergic neurons. It is not present in dopaminergic neurons and thus exerts no such effect there. SKF38393 is a post-synaptic dopamine D1 receptor agonist with no marked influence on noradrenergic neurons. A study was conducted to determine the interactive effects of fusaric acid plus SKF 38393 on body fat store levels, and blood glucose and plasma triglyceride levels in ob/ob mice. The ob/ob mouse is hyperphagic, obese, insulin resistant, diabeteic and dyslipidemic due to the absence of functional leptin as a result of a mutation in this gene.
Obese, diabetic female ob/ob mice (body weight of approximately 33 g) maintained on 14 hour daily photoperiods, housed one per cage and allowed to feed ad libitum were randomized to once daily treatment with either fusaric acid (15 mg/kg; n=6-8), SKF 38393 (10 mg/kg; n=6-8), both fusaric acid (15 mg/kg) and SKF 38393 (10 mg/kg) (n=6-8), or vehicle (control group; n=6-8) for a 14 day period. On the fifteenth day of the study and approximately 24 hours after the final treatment animals were sacrificed and blood samples were obtained for the analyses of blood glucose, plasma free fatty acid and triglyceride levels. Relative to controls, fusaric acid raised blood glucose from 380±30 mg/dl to 430±30 mg/dl and SKF 38393 reduced blood glucose to 290±55 mg/dl. However, fusaric acid plus SKF 38393 reduced blood glucose to 180±20 mg/dl. […] Neither fusaric acid nor SKF 38393 had any effect on retroperitoneal fat pad weight (735±43 mg and 735±50 mg, respectively versus control value of 727±25 mg) however, the combination of fusaric acid plus SKF 38393 reduced retroperitoneal fat pad weight to 680±25 mg.

[6] = system: high fat fed, hypertensive SHR rats; assay: Quinelorane plus fusaric acid in high fat fed, hypertensive SHR rats; conditions: SHR rats on high fat diet; for change from baseline body weight (weight loss): FA 12.5 mg/kg, 17 days, at 13 hours after light onset, FIGS. 1 and 2; for blood glucose level: FIG. 6
Method: Male SHR rats were maintained on 14 hour daily photoperiods and fed a high fat diet (60% of energy from fat; 5.24 kcal/gram weight) for 3 weeks and then divided into different groups and treated with either quinelorane (Q; a dopamine D2/D3 mixed receptor agonist) (0.075 mg/kg), fusaric acid (FA; a dopamine beta hydroxylase inhibitor) (12.5 mg/kg), quinelorane (0.075 mg/kg) plus FA (Q/FA) (12.5 mg/kg), or vehicle at 13 hours after light onset for 17 days. The doses of Q and FA were set at less than half maximal to effect central dopamine receptor binding functions and dopamine beta hydroxylase activity, respectively. […] Blood pressure measurements were taken at 14 days of treatment and animals were sacrificed at 18 days of treatment for analyses of body fat and humoral factors and metabolites. […] Respecting blood glucose, although both Q and FA reduced glucose level relative to vehicle, only the Q/FA regimen normalized blood glucose in these animals relative to vehicle (FIG. 6).

[7] = system: obese, diabetic female ob/ob mice; assay: Low dose amphetamine with or without bromocriptine in ob/ob mice; conditions: amphetamine 3 mg/kg
From the text: Amphetamine is a selective presynaptic dopamine release enhancer. It also acts as a presynaptic noradrenergic release enhancer but at higher dosages that will counter the effect of the dopamine reuptake inhibition activity to improve metabolism. However, addition of a dopamine D2 receptor agonist will act to reduce any amphetamine-induced increase in synaptic noradrenaline level and therefore should produce a more pronounced desired effect on metabolic disease than amphetamine or the D2 receptor agonist alone. A study was conducted to determine the effects of low dose amphetamine (3 mg/kg) with or without the dopamine D2 receptor agonist bromocriptine (5-<10 mg/kg dose) upon body weight gain, blood glucose, plasma free fatty acid and triglyceride levels in obese, diabetic mice (ob/ob strain). […] The ob/ob mouse is hyperphagic, obese, insulin resistant, diabetic and dyslipidemic due to the absence of functional leptin as a result of a mutation in this gene. Starvation or calorie restriction of these mice leads to increases in plasma free fatty acid levels that can function over the long term to worsen diabetes.
On the fifteenth day of the study and approximately 24 hours after the final treatment animals were sacrificed and blood samples were obtained for the analyses of blood glucose, plasma free fatty acid and triglyceride levels. […] Amphetamine had no effect on final body weight however, amphetamine plus bromocriptine reduced final body weight from 44±1 g to 39=/- 1.5 g.

[8] = system: female C57 Black mice fed a high simple sugar/moderate fat diet (western diet); assay: Body fat in C57 Black mice fed a western diet (GBR, FA, clonidine and combinations); conditions: mice on western diet; GBR 25 mg/kg, FA 10 mg/kg, clonidine 0.075 mg/kg; 14 days; relative to vehicle and BC/SKF groups; FIG. 7
Method: Female C57 Black mice were maintained on a 12 hour daily photoperiod and fed a high simple sugar/moderate fat diet (western diet) for several weeks to induce obesity and then different groups of animals (n =5-8/group) were treated with either GBR 12909 (25 mg/kg), FA (10 mg/kg), clonidine (0.075 mg/kg), GBR (25 mg/kg) plus FA (10 mg/kg), GBR (25 mg/kg) plus clonidine (0.075 mg/kg), bromocriptine (10 mg/kg) plus SKF38393 (10 mg/kg), or vehicle and sacrificed after 14 days of treatment to analyze body fat store levels.

[9] = system: female obese diabetic mice (ob/ob strain); assay: Bupropion plus fusaric acid in ob/ob mice; conditions: bupropion 40 mg/kg, FA 10 mg/kg, 14 days, relative to control, FIG. 9
Method: Female obese diabetic mice (ob/ob strain) at 6 weeks of age were fed standard rodent chow and different groups of animals (n=5-7/group) were treated with bupropion (40 mg/kg), FA (10 mg/kg), bupropion (40 mg/kg) plus FA (10 mg/kg), or vehicle for 14 days and then sacrificed for the analyses of blood glucose and body fat store level.

[10] = GBR 12909 10 mg/kg, FA 15 mg/kg, 14 days
[11] = relative to vehicle, 18 days of treatment

SMILES: Cl.Cl.Fc1ccc(C(OCCN2CCN(CCCc3ccccc3)CC2)c2ccc(F)cc2)cc1 [GBR 12909, 1-(2-[bis(4-Fluorophenyl)methoxy]ethyl)-4-(3-phenylpropyl)piperazine dihydrochloride]
- reduction of plasma triglyceride level relative to controls [1]: approximately 32%
- blood glucose ([1]; about 24 hours after final treatment, controls 455±50): 145 ± 25 mg/dL
- final body weight ([1]; controls 42±2): 28 ± 0.5 g
- plasma free fatty acid levels ([1]; controls 780±40): 450 ± 20 µM
- blood glucose [2]: 221 ± 31 mg/dL
- body weight (normalization) [3]: not observed
- blood glucose level ([3]; GBR 12909 10 mg/kg, FA 15 mg/kg, 14 days, FIG. 11): no significant effect
- plasma insulin levels compared to lean, insulin sensitive, non-diabetic mice [3, 10]: significantly higher
- reducing plasma insulin, compared with bupropion at equal dose ([4]; 20 mg/kg each): much more effective
- HOMA-IR values ([4]; GBR 20 mg/kg, compared to vehicle and Bupropion (20 mg/kg) groups, FIG. 19): significantly reduced
- body fat (intraabdominal fat pad) ([4]; GBR 20 mg/kg, compared to vehicle and Bupropion (20 mg/kg) treatment, FIG. 17): significantly reduced
- blood glucose ([4]; GBR 20 mg/kg, relative to vehicle and Bupropion (20 mg/kg) groups, FIG. 18): significantly reduced

SMILES: Cl.Oc1cc2c(cc1O)C(c1ccccc1)CNCC2 (centres unmarked) [SKF 38393, 1-phenyl-7,8-dihydroxy-2,3,4,5-tetrahydro-1H-3-benzazepine hydrochloride]
- retroperitoneal fat pad weight [5]: 735 ± 50 mg
- plasma triglyceride level [5]: 130 ± 7 mg/dL
- blood glucose [5]: 290 ± 55 mg/dL

SMILES: CCCN1CCC[C@@H]2Cc3nc(N)ncc3C[C@H]21 [Q]
- change from baseline body weight (weight loss) ([6]; Q 0.075 mg/kg): modest if any effects
- desensitization to the effects on weight loss ([6]; Q 0.075 mg/kg, weight regained to baseline values by treatment end): exhibited desensitization
- plasma endothelin-1 (endothelin 1-21 fragment) level [6, 11]: no significant effect
- plasma nitric oxide level [6, 11]: no significant effect
- blood glucose level ([6]; relative to vehicle): reduced

SMILES: CC(N)Cc1ccccc1 (centres unmarked) [amphetamine]
- effect on final body weight ([7]; 14 days): no effect
- plasma free fatty acid levels ([7]; 14 days, controls 900±100): 510 ± 30 µM
- plasma triglyceride levels ([7]; bromocriptine 5-<10 mg/kg, 14 days, controls 175±21): 70 ± 7 mg/dL
- blood glucose ([7]; bromocriptine 5-<10 mg/kg, once daily 14 days, controls 422±46): 348 ± 22 mg/dL

SMILES: Clc1cccc(Cl)c1NC1=NCCN1 [clonidine, 2-(2,6-dichloroanilino)-2-imidazoline]
- blood glucose [2]: 250 ± 35 mg/dL
- body fat store level (intraabdominal fat pad) [8]: no effect

SMILES: CCCCc1ccc(C(=O)O)nc1 [fusaric acid, 5-butyl-2-pyridinecarboxylic acid]
- retroperitoneal fat pad weight [5]: 735 ± 43 mg
- plasma triglyceride level [5]: 170 ± 27 mg/dL
- blood glucose [5]: 430 ± 30 mg/dL
- change from baseline body weight (weight loss) ([6]; Q 0.075 mg/kg): modest if any effects
- plasma C-reactive protein (CRP) level [6, 11]: no significant effect
- blood glucose level ([6]; relative to vehicle): reduced
- blood glucose [9]: no significant effect
- body weight (normalization) [3]: not observed
- plasma insulin levels compared to lean, insulin sensitive, non-diabetic mice [3, 10]: significantly higher
